Measurements taken from US5847125A, “Amino acid derivatives with anticholecystokinin activity” (James Black Foundation Limited, priority 1992, dated 1998).

Legend:
[1] = target: T1, CCK (gallbladder) receptor (Cavia porcellus, UniProt Q63931); assay: CCK-receptor bioassay, isolated guinea-pig gall-bladder strip preparations, CCK-8 as agonist; type: cell-based, male Dunkin-Hartley guinea-pigs; conditions: negative log10 of equilibrium dissociation constant; guinea-pig gall-bladder strips; CCK-8 agonist; test compound incubated for 60 minutes; 37° C; read-out: pKB versus CCK (gallbladder) (converted)
T1 construct: Isolated, strip preparations were prepared from gall-bladders removed from male Dunkin-Hartley guinea-pigs; from tissue; host or cells: guinea-pig gall-bladder strips
T1 sequence (Q63931 1-430): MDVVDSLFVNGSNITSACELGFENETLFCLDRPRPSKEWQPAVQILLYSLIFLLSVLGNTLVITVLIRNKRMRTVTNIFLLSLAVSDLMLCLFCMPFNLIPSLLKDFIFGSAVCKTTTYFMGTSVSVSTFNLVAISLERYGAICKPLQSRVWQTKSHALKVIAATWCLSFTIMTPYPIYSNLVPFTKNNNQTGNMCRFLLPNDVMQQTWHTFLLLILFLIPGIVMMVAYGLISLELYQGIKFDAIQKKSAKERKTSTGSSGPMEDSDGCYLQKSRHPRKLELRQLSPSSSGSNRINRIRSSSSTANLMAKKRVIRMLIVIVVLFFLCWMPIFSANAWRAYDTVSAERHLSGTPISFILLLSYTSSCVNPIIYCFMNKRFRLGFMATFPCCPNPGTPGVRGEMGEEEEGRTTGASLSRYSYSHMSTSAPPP
Description: The compounds of the examples were assayed using a CCK-receptor bioassay as follows:
Isolated, strip preparations were prepared from gall-bladders removed from male Dunkin-Hartley guinea-pigs (250-500 g body weight) according to the method of La Morte, W. W., et al., J.P.E.T., 217, (3), 638-644 (1981).
The complete gall-bladder is removed and opened along the longitudinal axis. Strips measuring 3 mm in the longitudinal axis and 1 mm in the transverse axis are cut and then tied with cotton to stainless steel wires. The preparation is connected to a GRASS FTO3 isometric transducer under an initial loading tension of 1 g and is immersed in 20 mls of Krebs solution maintained at 37° C. and gassed with 95% O2 /5% CO2. The Krebs solution is as detailed above in connection with the fundus assay, except that the Ca^2+ concentration is decreased to 0.5 mM. After 30 mins the preparation is washed. Drug addition begins after an initial 90 min stabilisation period. Responses are measured as changes in tension from that immediately prior to any drug addition. Single cumulative agonist concentration-effect curves, using CCK-8 as agonist, are obtained on each preparation in the absence and presence of test compound which has been incubated for 60 minutes. The antagonist activity of the test compound is estimated and expressed as the negative logarithm (base 10) of the equilibrium dissociation constants (pKB) using the modifications of standard competitive analysis described by Black et al., Br. J. Pharmacol.,86,571-579, (1985) and Shankley et al., Br. J. Pharmacol.,94,264-274 (1988).

CCKB receptor = target: T2, CCKB receptor (Mus musculus, UniProt P56481); assay: CCKB radioligand binding assay in mouse cortical membranes, [125I] CCK-8S (selectivity testing); parameters: species or system male mice; conditions: [125I] CCK-8S 200 pM, 150 min at 21°, pH 7.2, non-specific binding L-365,260, read-out: pKi CCKB (converted)
T2 construct: CCKB receptor in mouse cortical membranes; from tissue; host or cells: mouse cerebral cortex membranes (male mice, Charles River)
T2 sequence (P56481 1-453): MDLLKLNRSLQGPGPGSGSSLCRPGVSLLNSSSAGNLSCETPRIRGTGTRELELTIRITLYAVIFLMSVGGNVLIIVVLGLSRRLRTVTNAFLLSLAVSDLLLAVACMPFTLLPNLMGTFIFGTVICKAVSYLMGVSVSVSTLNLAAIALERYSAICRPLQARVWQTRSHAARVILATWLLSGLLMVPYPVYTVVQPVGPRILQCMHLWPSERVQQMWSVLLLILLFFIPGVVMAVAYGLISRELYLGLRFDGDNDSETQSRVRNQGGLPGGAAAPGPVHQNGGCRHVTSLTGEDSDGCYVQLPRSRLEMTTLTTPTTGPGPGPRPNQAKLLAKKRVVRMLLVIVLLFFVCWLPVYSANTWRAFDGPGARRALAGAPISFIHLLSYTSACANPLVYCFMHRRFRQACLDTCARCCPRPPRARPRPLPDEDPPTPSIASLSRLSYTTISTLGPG
Description: The compounds were assayed for selectivity with respect to the CCKB receptor in mouse cortical membranes by means of a radioligand binding assay. The procedure was as follows:
The whole brains from male mice (CDI 22-25 g; Charles River) were removed and placed in ice-cold buffer (pH 7.2 at 21°±3° C.) of the following composition (mM); 10 HEPES, 130 NaCl, 4.7 KCl, 5 MgCl2, 1 EDTA and containing 0.25 g. 1^-1 bacitracin.
The cortex was dissected, weighed and homogenised in 40 ml ice-cold buffer using a Teflon-in-glass homogeniser. The homogenate was centrifuged at 39,800 g for 20 min at 4° C., the supernatant discarded and the pellet resuspended by homogenisation in fresh buffer. The homogenate was recentrifuged (39,800 g; 20 min at 4° C.) and the final pellet was resuspended in HEPES buffer to give a tissue concentration of 2 mg ml^-1 (original wet weight).
The membranes (400 μl) were incubated for 150 min at 21°±3° C. in a final volume of 0.5 ml with HEPES buffer containing [^125 I] CCK-8S (0.05 ml; 200 pM NEN 2200Ci.mmol^-1) and competing compound. Total and non-specific binding of [^125 I] CCK-8S were defined using 0.05 ml of buffer and 0.05 ml of 10 mM L-365,260, respectively. The assay was terminated by rapid filtration through pre-soaked Whatman GF/B filters using a Brandell Cell harvester. The filters were washed (3×3 ml) with ice-cold 50 mM Tris-HCl (pH 7.4 at 4° C.) and bound radioactivity determined by counting (1 min.) in a gamma counter.

CCKA = target: T3, CCKA (Cavia porcellus, UniProt Q63931); assay: CCKA binding assay, pancreas membranes, [125I]-CCK8(S); parameters: species or system male guinea-pigs (Dunkin Hartley); conditions: guinea-pig pancreas membranes; [125I]-CCK8(S) 200 pM; 0.375 μM PD134,308; 150 minutes at 21°; non-specific binding 100 nM L-364,718; read-out: pKi CCKλ (converted)
T3 construct: The pancreatata were removed from male guinea-pigs (200-300 g; Dunkin Hartley); from tissue; host or cells: guinea-pig pancreas membranes
T3 sequence (Q63931 1-430): T1 sequence (Q63931 1-430)
Description: The compounds of the examples were also tested in a CCKA binding assay as follows:
The pancreatata were removed from male guinea-pigs (200-300 g; Dunkin Hartley) and placed in ice-cold HEPES buffer (pH 7.2@21°±3°). The pancreatata were homogenised in 40 ml ice-cold HEPES buffer using a polytron (Brinkmann, PT10, setting 10) 4×1 second. The homogenate was centrifuged at 39,800 g for 15 min at 4°. The supernatant was discarded and the pellet re-suspended using a Teflon-in-glass homogeniser in 20 volumes of fresh buffer and re-centrifuged as above. The final pellet was re-suspended using a Teflon-in-glass homogeniser to a tissue concentration of 1 mg ml^31 1 (original wet weight), and filtered through 500 μm pore-size Nytex mesh.
The membranes (400 μl; containing 0.375 μM PD134,308) are incubated for 150 minutes at 21°±3° in a final volume of 0.5 ml with HEPES buffer containing [^125 I]--CCK8 (S) (50 μl; 200 pM) and competing compound. Total and non-specific binding of [^125 I]--CCK8 (S) are defined using 50 μl of buffer and 50 μl of 100 nM L-364,718 respectively. The assay is terminated by rapid filtration through pre-soaked Whatman GF/B filters using a Brandell Cell Harvester. The filters were washed (3×3 ml) with ice-cold 50 mM Tris HCl (pH 7.4 at 4°) and bound radioactivity is determined by counting (1 min) in a gamma counter.

Compound	Kb [1] [nM]	Ki (CCKB receptor) [nM]	Ki (CCKA) [nM]
O=C(O)C[C@H](NS(=O)(=O)c1ccc2ccccc2c1)C(=O)NCC12CC3CC(CC(C3)C1)C2 [Example 10, 2-Naphthalenesulphonyl-L-aspartyl 1-adamantylmethylamide]	63.1	6310	50.1
CCCCCC(CCCCC)NC(=O)[C@H](CC(=O)O)NS(=O)(=O)c1ccc2ccccc2c1 [Example 9, 2-Naphthalenesulphonyl-L-aspartyl (1-pentyl)hexylamide]	200	3980	398
CCCCCN(CCCCC)C(=O)[C@@H](CC(=O)O)NS(=O)(=O)c1ccc2ccccc2c1 [Example 18, 2-Naphthalenesulphonyl-D-aspartyl dipentylamide]	158	3160	631
